Key:
Plasmodium falciparum [1] = test: Antiplasmodial activity against Plasmodium falciparum 3D7 infected in human erythrocytes after 72 hrs by SYBR green 1-based fluorimetric assay; type: functional, organism-based; conditions: 3D7, 72 h
Plasmodium falciparum [2] = test: Antiplasmodial activity against Plasmodium falciparum Dd2 infected in human erythrocytes after 48 hrs by picogreen-microfluorimetric assay; type: functional, organism-based; conditions: Dd2, 48 h
Choline kinase = target: T1, Choline kinase (Plasmodium falciparum (isolate 3D7), UniProt Q8IM71); test: Inhibition of Plasmodium falciparum 3D7 choline kinase expressed in Escherichia coli BL21(DE3) assessed as reduction in phosphocholine formation
T1 sequence (Q8IM71 whole entry): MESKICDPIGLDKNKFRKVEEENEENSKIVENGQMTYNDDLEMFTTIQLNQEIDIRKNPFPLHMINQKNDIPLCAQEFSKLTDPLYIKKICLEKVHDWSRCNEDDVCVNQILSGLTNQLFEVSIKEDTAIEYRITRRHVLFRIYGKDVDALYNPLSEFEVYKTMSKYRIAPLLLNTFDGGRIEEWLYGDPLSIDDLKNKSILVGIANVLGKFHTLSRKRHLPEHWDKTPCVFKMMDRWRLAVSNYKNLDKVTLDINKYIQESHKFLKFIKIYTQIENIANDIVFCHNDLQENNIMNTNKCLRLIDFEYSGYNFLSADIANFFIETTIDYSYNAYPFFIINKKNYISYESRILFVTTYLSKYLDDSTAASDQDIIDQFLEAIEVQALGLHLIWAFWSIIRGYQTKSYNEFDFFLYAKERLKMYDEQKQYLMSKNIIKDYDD

[3] = Inhibition of Plasmodium falciparum choline kinase using [methyl-14C]choline as substrate assessed as reduction in rate of incorporation of 14C from [methyl-14C]choline into phosphocholine preincubated for 5 mins followed by substrate addition measured after 10 mins by liquid scintillation counter
[4] = Inhibition of Plasmodium falciparum choline kinase using [1-14C]ethanolamine as substrate assessed as reduction in rate of incorporation of […] preincubated for 5 mins followed by substrate addition measured after 10 mins by liquid scintillation counter
Choline kinase alpha = Choline kinase alpha (Homo sapiens, UniProt P35790); test: Inhibition of human choline kinase alpha1 using [methyl-14C]choline as substrate assessed as reduction in rate of incorporation of 14C from [methyl-14C]choline into phosphocholine preincubated for 5 mins followed by substrate addition measured after 10 mins by scintillation counting
Chain of Choline kinase alpha (P35790 whole entry): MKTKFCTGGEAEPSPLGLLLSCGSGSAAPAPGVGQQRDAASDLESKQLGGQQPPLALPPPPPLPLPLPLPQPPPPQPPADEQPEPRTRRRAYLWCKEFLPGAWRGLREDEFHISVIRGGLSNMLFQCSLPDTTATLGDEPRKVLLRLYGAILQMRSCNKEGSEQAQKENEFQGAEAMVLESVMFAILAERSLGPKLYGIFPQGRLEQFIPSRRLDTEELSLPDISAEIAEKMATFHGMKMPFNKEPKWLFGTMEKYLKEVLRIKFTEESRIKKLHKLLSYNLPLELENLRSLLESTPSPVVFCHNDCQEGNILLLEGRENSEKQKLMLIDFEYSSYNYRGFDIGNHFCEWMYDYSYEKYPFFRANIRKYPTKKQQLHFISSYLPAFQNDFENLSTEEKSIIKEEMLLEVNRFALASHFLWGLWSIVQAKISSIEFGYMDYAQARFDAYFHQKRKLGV

IC50 (Plasmodium falciparum [1]) [nM] | SMILES | IC50 (Plasmodium falciparum [2]) [nM] | IC50 (Choline kinase) [nM] | IC50 [3] [nM] | IC50 ([4]; read-out: IC50) [nM] | IC50 [4] | IC50 (Choline kinase alpha) [nM]
162 | CN(c1ccccc1)c1cc[n+](Cc2ccc(OCCOc3ccc(C[n+]4ccc(N(C)c5ccccc5)c5ccccc54)cc3)cc2)c2ccccc12 |  |  |  |  |  | 
3 | CN(C)c1cc[n+](Cc2ccc(CCCCc3ccc(C[n+]4ccc(N5CCCC5)cc4)cc3)cc2)cc1 |  |  | 103000 | 6000 |  | 
16 | [Br-].[Br-].c1cc(OCCOc2ccc(C[n+]3ccc(N4CCCC4)cc3)cc2)ccc1C[n+]1ccc(N2CCCC2)cc1 |  |  | 50000 |  | Not Active | 
369 | CN(c1ccc(Cl)cc1)c1cc[n+](Cc2ccc(OCCOc3ccc(C[n+]4ccc(N(C)c5ccc(Cl)cc5)c5ccc(Cl)cc54)cc3)cc2)c2cc(Cl)ccc12 |  |  | 6470 |  |  | 
149 | CN(c1ccc(Cl)cc1)c1cc[n+](Cc2ccc(OCCOc3ccc(C[n+]4ccc(N(C)c5ccc(Cl)cc5)c5ccccc54)cc3)cc2)c2ccccc12 |  |  | 2520 |  |  | 
16 | CN(C)c1cc[n+](Cc2ccc(OCCOc3ccc(C[n+]4ccc(N(C)C)cc4)cc3)cc2)cc1.[Br-].[Br-] |  |  | ≥ 100000 |  | Not Active | 
177 | CN(c1ccccc1)c1cc[n+](Cc2ccc(OCCOc3ccc(C[n+]4ccc(N(C)c5ccccc5)c5ccc(Cl)cc54)cc3)cc2)c2cc(Cl)ccc12 |  |  |  |  |  | 
35 | Clc1ccc2c(N3CCCCCC3)cc[n+](Cc3ccc(OCCOc4ccc(C[n+]5ccc(N6CCCCCC6)c6ccc(Cl)cc65)cc4)cc3)c2c1 |  |  | 10900 | > 50000 |  | 

Continued, molecule first:

SMILES | IC50 (Plasmodium falciparum [1]) [nM] | IC50 (Plasmodium falciparum [2]) [nM] | IC50 (Choline kinase) [nM] | IC50 [3] [nM] | IC50 ([4]; read-out: IC50) [nM] | IC50 [4] | IC50 (Choline kinase alpha) [nM]
C[N+]1(C)CCOC(O)(c2ccc(-c3ccc(C4(O)C[N+](C)(C)CCO4)cc3)cc2)C1 (stereo not given) [HEMICHOLINIUM-3] | > 50000 | > 50000 | 250000 | 250000 |  |  | 
c1ccc2c(c1)c(N1CCCCCC1)cc[n+]2Cc1ccc(OCCOc2ccc(C[n+]3ccc(N4CCCCCC4)c4ccccc43)cc2)cc1 | 142 |  |  | 2360 | > 15000 |  | 
c1cc(OCCOc2ccc(C[N+]34CCC(CC3)CC4)cc2)ccc1C[N+]12CCC(CC1)CC2 | 177 |  |  |  |  |  | 
Clc1ccc2c(N3CCCC3)cc[n+](Cc3ccc(OCCOc4ccc(C[n+]5ccc(N6CCCC6)c6ccc(Cl)cc65)cc4)cc3)c2c1 | 59 |  |  | 14100 |  |  | 
OC1C[N+]2(Cc3ccc(OCCOc4ccc(C[N+]56CCC(CC5)C(O)C6)cc4)cc3)CCC1CC2 (stereo not given) | 1690 |  |  |  |  |  | 
CN(C)c1cc[n+](Cc2ccc(CCCCc3ccc(C[n+]4ccc(N(C)C)cc4)cc3)cc2)cc1 | 3.5 | 3.5 | 106000 | 106000 |  |  | 780
CN(C)c1cc[n+](Cc2ccc(-c3ccc(C[n+]4ccc(N5CCCC5)cc4)cc3)cc2)cc1 |  |  |  | 276000 | 12000 |  | 
CN(c1ccc(Cl)cc1)c1cc[n+](Cc2ccc(-c3ccc(C[n+]4ccc(N(C)c5ccc(Cl)cc5)c5ccccc54)cc3)cc2)c2ccccc12 [RSM-932A] | 26.5 | 26.5 | 1750 | 1750 |  |  | 

— ChEMBL document CHEMBL4118254, “1,2-Diphenoxiethane salts as potent antiplasmodial agents” (Bioorg Med Chem Lett, 2018)
